Source: ChEMBL document CHEMBL1147210, “Synthesis and antibacterial activity of levofloxacin derivatives with certain bulky residues on piperazine ring” (Eur J Med Chem, 2007)
pIC50: −log10 of the molar value. Converted amounts (≈) assume the structure as drawn.

Legend:
Salmonella typhi = test: Antibacterial activity against Salmonella typhi ATCC 19430 after 18 hrs; format: functional, Salmonella enterica subsp. enterica serovar Typhi; conditions: Salmonella enterica, ATCC 19430, 18 h
Escherichia coli [1] = test: Antibacterial activity against Escherichia coli NCTC 12900 after 18 hrs; format: functional; conditions: NCTC 12900, 18 h
Staphylococcus aureus [2] = test: Antibacterial activity against methicillin-resistant Staphylococcus aureus isolate 2 after 18 hrs; format: functional
[3] = test system: Staphylococcus epidermidis; test: Antibacterial activity against Staphylococcus epidermidis ATCC 14940 after 18 hrs; format: functional; conditions: ATCC 14940, 18 h
Escherichia coli [4] = test: Antibacterial activity against Escherichia coli ATCC 25922 after 18 hrs; format: functional; conditions: ATCC 25922, 18 h
Staphylococcus aureus [5] = test: Antibacterial activity against Staphylococcus aureus ATCC 6538p after 18 hrs; format: functional
Shigella flexneri = test: Antibacterial activity against Shigella flexneri NCTC 8516 after 18 hrs; format: functional; conditions: NCTC 8516, 18 h
Enterococcus faecalis = test: Antibacterial activity against Enterococcus faecalis NCTC 6013 after 18 hrs; format: functional; conditions: NCTC 6013, 18 h
Pseudomonas aeruginosa = test: Antibacterial activity against Pseudomonas aeruginosa ATCC 27853 after 18 hrs; format: functional; conditions: ATCC 27853, 18 h
Staphylococcus aureus [6] = test: Antibacterial activity against Staphylococcus aureus ATCC 25923 after 18 hrs; format: functional; conditions: ATCC 25923, 18 h
Serratia marcescens = test: Antibacterial activity against Serratia marcescens PTCC 1111 after 18 hrs; format: functional
Staphylococcus aureus [7] = test: Antibacterial activity against methicillin-resistant Staphylococcus aureus isolate 1 after 18 hrs; format: functional
Bacillus subtilis = test: Antibacterial activity against Bacillus subtilis ATCC 6051 after 18 hrs; format: functional; conditions: ATCC 6051, 18 h
[8] = test system: Staphylococcus epidermidis; test: Antibacterial activity against Staphylococcus epidermidis ATCC 12228 after 18 hrs; format: functional; conditions: ATCC 12228, 18 h
Klebsiella pneumoniae = test: Antibacterial activity against Klebsiella pneumoniae ATCC 10031 after 18 hrs; format: functional; conditions: ATCC 10031, 18 h
MCF7 = test: Cytotoxic activity against human MCF7 cells after 48 hrs by MTT reduction assay; format: functional, cell-based; conditions: MCF7, 48 h

| Structure (SMILES) | MIC (Salmonella typhi) | MIC (Escherichia coli [1]) | MIC (Staphylococcus aureus [2]) | MIC [3] | MIC (Escherichia coli [4]) | MIC (Staphylococcus aureus [5]) | MIC (Shigella flexneri) | MIC (Enterococcus faecalis) | MIC (Pseudomonas aeruginosa) | MIC (Staphylococcus aureus [6]) | MIC (Serratia marcescens) | MIC (Staphylococcus aureus [7]) | MIC (Bacillus subtilis) | MIC [8] | MIC (Klebsiella pneumoniae) | pIC50 (MCF7) |
| --- | --- | --- | --- | --- | --- | --- | --- | --- | --- | --- | --- | --- | --- | --- | --- | --- |
| Cc1ccc(/C(CN2CCN(c3c(F)cc4c(=O)c(C(=O)O)cn5c4c3OC[C@@H]5C)CC2)=N/O)cc1 | 1 µg/mL (≈ 2.02 µM) | 1 µg/mL (≈ 2.02 µM) | 0.5 µg/mL (≈ 1.01 µM) | 0.5 µg/mL (≈ 1.01 µM) | 1 µg/mL (≈ 2.02 µM) | 0.5 µg/mL (≈ 1.01 µM) | 1 µg/mL (≈ 2.02 µM) | 0.25 µg/mL (≈ 0.506 µM) | > 4 µg/mL | 1 µg/mL (≈ 2.02 µM) | > 4 µg/mL | 0.5 µg/mL (≈ 1.01 µM) | 0.5 µg/mL (≈ 1.01 µM) | 0.5 µg/mL (≈ 1.01 µM) | > 4 µg/mL |  |
| C[C@H]1COc2c(N3CCN(CC(=O)c4ccc(Cl)cc4Cl)CC3)c(F)cc3c(=O)c(C(=O)O)cn1c23 | 2 µg/mL (≈ 3.74 µM) | 2 µg/mL (≈ 3.74 µM) | 1 µg/mL (≈ 1.87 µM) | 0.5 µg/mL (≈ 0.936 µM) | 1 µg/mL (≈ 1.87 µM) | 1 µg/mL (≈ 1.87 µM) | 1 µg/mL (≈ 1.87 µM) | 0.5 µg/mL (≈ 0.936 µM) | > 4 µg/mL | 0.5 µg/mL (≈ 0.936 µM) | > 4 µg/mL | 0.5 µg/mL (≈ 0.936 µM) | 1 µg/mL (≈ 1.87 µM) | 1 µg/mL (≈ 1.87 µM) | > 4 µg/mL |  |
| C[C@H]1COc2c(N3CCN(CC(=O)c4ccc(Cl)cc4)CC3)c(F)cc3c(=O)c(C(=O)O)cn1c23 | 0.25 µg/mL (≈ 0.5 µM) | 1 µg/mL (≈ 2 µM) | 0.25 µg/mL (≈ 0.5 µM) | 0.12 µg/mL (≈ 0.24 µM) | 0.5 µg/mL (≈ 1 µM) | 0.5 µg/mL (≈ 1 µM) | 0.25 µg/mL (≈ 0.5 µM) | 0.06 µg/mL (≈ 0.12 µM) | > 4 µg/mL | 0.5 µg/mL (≈ 1 µM) | 4 µg/mL (≈ 8 µM) | 0.25 µg/mL (≈ 0.5 µM) | 0.12 µg/mL (≈ 0.24 µM) | 0.25 µg/mL (≈ 0.5 µM) | > 4 µg/mL | 5.28 |
| C[C@H]1COc2c(N3CCN(C/C(=N\O)c4ccc(F)cc4)CC3)c(F)cc3c(=O)c(C(=O)O)cn1c23 | 1 µg/mL (≈ 2.01 µM) | 2 µg/mL (≈ 4.01 µM) | 1 µg/mL (≈ 2.01 µM) | 0.5 µg/mL (≈ 1 µM) | 4 µg/mL (≈ 8.02 µM) | 1 µg/mL (≈ 2.01 µM) | 1 µg/mL (≈ 2.01 µM) | 0.25 µg/mL (≈ 0.502 µM) | > 4 µg/mL | 1 µg/mL (≈ 2.01 µM) | > 4 µg/mL | 1 µg/mL (≈ 2.01 µM) | 0.25 µg/mL (≈ 0.502 µM) | 0.5 µg/mL (≈ 1 µM) | > 4 µg/mL |  |
| C[C@H]1COc2c(N3CCN(C/C(=N\O)c4ccc(Cl)cc4Cl)CC3)c(F)cc3c(=O)c(C(=O)O)cn1c23 | 4 µg/mL (≈ 7.28 µM) | 4 µg/mL (≈ 7.28 µM) | 0.5 µg/mL (≈ 0.91 µM) | 0.5 µg/mL (≈ 0.91 µM) | 4 µg/mL (≈ 7.28 µM) | 0.5 µg/mL (≈ 0.91 µM) | 4 µg/mL (≈ 7.28 µM) | 4 µg/mL (≈ 7.28 µM) | > 4 µg/mL | 0.5 µg/mL (≈ 0.91 µM) | > 4 µg/mL | 0.5 µg/mL (≈ 0.91 µM) | 1 µg/mL (≈ 1.82 µM) | 0.5 µg/mL (≈ 0.91 µM) | > 4 µg/mL |  |
| COc1ccc(/C(CN2CCN(c3c(F)cc4c(=O)c(C(=O)O)cn5c4c3OC[C@@H]5C)CC2)=N/O)cc1 | 0.5 µg/mL (≈ 0.979 µM) | 0.5 µg/mL (≈ 0.979 µM) | 0.5 µg/mL (≈ 0.979 µM) | 0.5 µg/mL (≈ 0.979 µM) | 0.5 µg/mL (≈ 0.979 µM) | 0.5 µg/mL (≈ 0.979 µM) | 0.5 µg/mL (≈ 0.979 µM) | 0.06 µg/mL (≈ 0.118 µM) | > 4 µg/mL | 1 µg/mL (≈ 1.96 µM) | > 4 µg/mL | 1 µg/mL (≈ 1.96 µM) | 0.12 µg/mL (≈ 0.235 µM) | 0.5 µg/mL (≈ 0.979 µM) | > 4 µg/mL |  |
| C[C@H]1COc2c(N3CCN(C)CC3)c(F)cc3c(=O)c(C(=O)O)cn1c23.C[C@H]1COc2c(N3CCN(C)CC3)c(F)cc3c(=O)c(C(=O)O)cn1c23.O [LEVOFLOXACIN] | 0.03 µg/mL |  | 0.25 µg/mL | 0.5 µg/mL |  | 0.25 µg/mL | 0.03 µg/mL | 1 µg/mL |  | 0.5 µg/mL | 0.5 µg/mL | 0.25 µg/mL | 0.5 µg/mL | 0.25 µg/mL | 0.25 µg/mL |  |
| C[C@H]1COc2c(N3CCNCC3)c(F)cc3c(=O)c(C(=O)O)cn1c23 [N-DESMETHYL LEVOFLOXACIN] | 0.06 µg/mL (≈ 0.173 µM) | 0.12 µg/mL (≈ 0.345 µM) | 2 µg/mL (≈ 5.76 µM) | 1 µg/mL (≈ 2.88 µM) | 0.12 µg/mL (≈ 0.345 µM) | 2 µg/mL (≈ 5.76 µM) | 0.06 µg/mL (≈ 0.173 µM) | 0.06 µg/mL (≈ 0.173 µM) | > 4 µg/mL | 4 µg/mL (≈ 11.5 µM) | 1 µg/mL (≈ 2.88 µM) | 2 µg/mL (≈ 5.76 µM) | 1 µg/mL (≈ 2.88 µM) | 1 µg/mL (≈ 2.88 µM) | 0.25 µg/mL (≈ 0.72 µM) |  |
| Cc1ccc(C(=O)CN2CCN(c3c(F)cc4c(=O)c(C(=O)O)cn5c4c3OC[C@@H]5C)CC2)cc1 | 1 µg/mL (≈ 2.09 µM) | 0.5 µg/mL (≈ 1.04 µM) | 1 µg/mL (≈ 2.09 µM) | 0.5 µg/mL (≈ 1.04 µM) | 1 µg/mL (≈ 2.09 µM) | 1 µg/mL (≈ 2.09 µM) | 0.5 µg/mL (≈ 1.04 µM) | 0.25 µg/mL (≈ 0.521 µM) | > 4 µg/mL | 0.5 µg/mL (≈ 1.04 µM) | > 4 µg/mL | 1 µg/mL (≈ 2.09 µM) | 0.5 µg/mL (≈ 1.04 µM) | 0.5 µg/mL (≈ 1.04 µM) | > 4 µg/mL |  |
| C[C@H]1COc2c(N3CCN(CC(=O)c4ccccc4)CC3)c(F)cc3c(=O)c(C(=O)O)cn1c23 | 0.12 µg/mL (≈ 0.258 µM) | 0.25 µg/mL (≈ 0.537 µM) | 1 µg/mL (≈ 2.15 µM) | 0.5 µg/mL (≈ 1.07 µM) | 0.12 µg/mL (≈ 0.258 µM) | 0.5 µg/mL (≈ 1.07 µM) | 0.25 µg/mL (≈ 0.537 µM) | 4 µg/mL (≈ 8.59 µM) | > 4 µg/mL | 0.5 µg/mL (≈ 1.07 µM) | 4 µg/mL (≈ 8.59 µM) | 0.5 µg/mL (≈ 1.07 µM) | 0.5 µg/mL (≈ 1.07 µM) | 0.5 µg/mL (≈ 1.07 µM) | 0.5 µg/mL (≈ 1.07 µM) |  |
| C[C@H]1COc2c(N3CCN(C/C(=N\O)c4ccccc4)CC3)c(F)cc3c(=O)c(C(=O)O)cn1c23 | 0.5 µg/mL (≈ 1.04 µM) | 4 µg/mL (≈ 8.32 µM) | 1 µg/mL (≈ 2.08 µM) | 0.5 µg/mL (≈ 1.04 µM) | 4 µg/mL (≈ 8.32 µM) | 0.5 µg/mL (≈ 1.04 µM) | 0.5 µg/mL (≈ 1.04 µM) | 4 µg/mL (≈ 8.32 µM) | > 4 µg/mL | 0.5 µg/mL (≈ 1.04 µM) | > 4 µg/mL | 0.5 µg/mL (≈ 1.04 µM) | 0.25 µg/mL (≈ 0.52 µM) | 0.5 µg/mL (≈ 1.04 µM) | 4 µg/mL (≈ 8.32 µM) |  |
| COc1cc([C@@H]2c3cc4c(cc3[C@@H](O[C@@H]3O[C@@H]5CO[C@@H](C)O[C@H]5[C@H](O)[C@H]3O)[C@H]3COC(=O)[C@H]23)OCO4)cc(OC)c1O [ETOPOSIDE] |  |  |  |  |  |  |  |  |  |  |  |  |  |  |  | 5.49 |
| COc1ccc(C(=O)CN2CCN(c3c(F)cc4c(=O)c(C(=O)O)cn5c4c3OC[C@@H]5C)CC2)cc1 | 0.5 µg/mL (≈ 1.01 µM) | 0.5 µg/mL (≈ 1.01 µM) | 1 µg/mL (≈ 2.02 µM) | 0.25 µg/mL (≈ 0.505 µM) | 0.5 µg/mL (≈ 1.01 µM) | 0.5 µg/mL (≈ 1.01 µM) | 0.5 µg/mL (≈ 1.01 µM) | 0.06 µg/mL (≈ 0.121 µM) | > 4 µg/mL | 0.5 µg/mL (≈ 1.01 µM) | 4 µg/mL (≈ 8.07 µM) | 0.5 µg/mL (≈ 1.01 µM) | 0.25 µg/mL (≈ 0.505 µM) | 0.25 µg/mL (≈ 0.505 µM) | 4 µg/mL (≈ 8.07 µM) |  |
| C[C@H]1COc2c(N3CCN(CC(=O)c4ccc(F)cc4)CC3)c(F)cc3c(=O)c(C(=O)O)cn1c23 | 1 µg/mL (≈ 2.07 µM) | 2 µg/mL (≈ 4.14 µM) | 1 µg/mL (≈ 2.07 µM) | 0.5 µg/mL (≈ 1.03 µM) | 1 µg/mL (≈ 2.07 µM) | 1 µg/mL (≈ 2.07 µM) | 1 µg/mL (≈ 2.07 µM) | 0.25 µg/mL (≈ 0.517 µM) | > 4 µg/mL | 1 µg/mL (≈ 2.07 µM) | > 4 µg/mL | 0.5 µg/mL (≈ 1.03 µM) | 0.5 µg/mL (≈ 1.03 µM) | 0.5 µg/mL (≈ 1.03 µM) | > 4 µg/mL |  |
